{"source": "patent US20060229233A1", "about": "“Compositions and methods for treating neurological disorders” (ID Biomedical Corporation, priority 2004, published 2006)", "key": {"[1]": {"test_system": "Tg2576 APP transgenic mice", "assay": "EAE clinical score in PLP-immunized Tg2576 APP transgenic mice", "assay_type": "in vivo", "details": "PLP immunization in CFA", "excerpt": "In order to determine whether the effect was unique to MOG-induced EAE, EAE was induced with proteolipid protein (PLP) peptide (amino acids 139-151) in CFA. A 76% reduction of staining for Aβ fibrils was found and a 70% reduction in Aβ levels in animals with PLP induced EAE (p<0.02) (See Table 2, FIG. 3A). In order to induce EAE with PLP, Tg2576 mice as described by Hsiao, K. et al., Science 274 (5284):99-102 (1996) were utilized, which are on a B6/SJL background. Similar results were found with Tg2576 mice and J20 immunized mice described by Mucke et al., Ann NY Acad Sci (777) 82-88 (1996), to induce MOG-EAE (See Table 1). […] Of note, there was no difference in the total AS (amyloid) load in J20 mice greater than 13 months in age when compared to Tg2576 mice greater than 16 months of age.\nInduction and clinical evaluation of EAE in APP+ mice. (B6D2)F1 or (B6XSJL)F1 APP+ (WT or B-cell deficient μMT) and non-tg littermates were immunized in the hind footpads with 100 μg MOG(35-55), PLP 139-151 or 100 μg β-amyloid peptide (1-40) in CFA. […] Animals were monitored for symptoms of EAE beginning 7 days after immunization and scored as follows: 0, no disease; 1, tail paralysis; 2, hind limb weakness; 3, hind limb paralysis; 4, hind limb plus forelimb paralysis; and 5, moribund."}, "[2]": {"test_system": "Aβ", "assay": "Anti-Aβ antibody level (IgG, OD 450) in Tg2576 APP transgenic mice", "assay_type": "in vivo", "method": "Antibody levels were measured against Aβ in animals immunized with MOG or PLP to determine if there was cross reactivity with Aβ and Aβ antibody titers as compared to those from animals immunized with Aβ. […] To definitively establish that antibodies were not playing a role, 16-month-old J20 mice bred to μMT B-cell deficient mice were immunized with MOG 35-55 in CFA followed by administration of Pertussis toxin."}, "[3]": {"test_system": "Aβ40 and Aβ42", "assay": "Total brain Aβ by ELISA, Tg2576 APP transgenic mice", "assay_type": "in vivo", "excerpt": "(§1) In order to determine whether the effect was unique to MOG-induced EAE, EAE was induced with proteolipid protein (PLP) peptide (amino acids 139-151) in CFA. A 76% reduction of staining for Aβ fibrils was found and a 70% reduction in Aβ levels in animals with PLP induced EAE (p<0.02) (See Table 2, FIG. 3A). In order to induce EAE with PLP, Tg2576 mice as described by Hsiao, K. et al., Science 274 (5284):99-102 (1996) were utilized, which are on a B6/SJL background. Similar results were found with Tg2576 mice and J20 immunized mice described by Mucke et al., Ann NY Acad Sci (777) 82-88 (1996), to induce MOG-EAE (See Table 1). […]\n(§2) Amyloid quantification. To quantify amyloid burden, the right hemisphere was extracted in 5.0 M guanidinium-chloride (pH 8) for 3 hours at room temperature. […] Brains were frozen in the presence of OCT paraformaldehyde, cut to 14-μm longitudinal sections used for immunohistological staining and amyloid fibril quantification. Well-defined hippocampal regions (Bregma −1.34), were selected for quantification of the amount of amyloid fibril in plaques using thioflavin-S staining. Images (magnification ×20) from these sections were collected from a 3CCD color video camera and analyzed with appropriate software (NIH; Imaging Research). The amount of amyloid fibril was expressed as a percentage per mm^2 hippocampal region as measured by the software."}, "[4]": {"test_system": "Aβ fibrils", "assay": "Thioflavin-S quantification of Aβ fibrils in hippocampus, Tg2576 APP transgenic mice", "assay_type": "in vivo", "excerpt": "as §1, §2"}, "[5]": {"test_system": "activated microglia", "assay": "Microglia activation (CD11b staining) in PLP-immunized animals", "assay_type": "in vivo, mice", "details": "PLP immunization; p<0.001"}, "[6]": {"details": "PLP immunization in CFA, Tg2576 APP transgenic mice"}}, "note": "Marks after values point to notes of the source that are not given here."}
{"substance": "proteolipid protein (PLP) peptide (amino acids 139-151) (CHCLGKWLGHPDK; UniProt P60202 139-151, looked up, fragment)", "values": [{"measurement": "EAE score", "setting": "[1]", "result": "1.7 ± 0.7"}, {"measurement": "anti-Aβ antibodies", "setting": "[2]; PLP immunization", "result": "not detected"}, {"measurement": "Anti-Aβ Antibody", "setting": "[2]; level of OD 450 at titer of 1:500 IgG, Tg2576 APP transgenic mice", "result": 0, "unit": "OD 450"}, {"measurement": "Total brain Aβ", "setting": "[3]; [6]", "result": "47.7 ± 18.4 ^a ng/ml"}, {"measurement": "reduction in Aβ levels", "setting": "[3]; PLP induced EAE, Tg2576 mice", "result": 70, "unit": "%"}, {"measurement": "% Area of thioflavin positive Aβ plaques (hippocampus)", "setting": "[4]; [6]", "result": "0.68 ± 0.2 ^b %"}, {"measurement": "reduction of staining for Aβ fibrils", "setting": "[4]; PLP induced EAE, Tg2576 mice", "result": 76, "unit": "%"}, {"measurement": "microglia activation", "setting": "[5]", "result": "increased levels of microglia activation"}]}
